# Test results taken from US6914045B2, “Glycopeptide antibiotics” (Wyeth Holdings Corporation, priority 2001, dated 2005).
# Experiments:
# Experiment in all cases: in vitro antibacterial evaluation, MIC by broth dilution
# Assay type in all cases: cell-based
# Enterococcus sp. = details: broth dilution, 18 hours at 35° C.
# Summary of the method: (§1)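 MIC, the lowest antibiotic concentration preventing growth, was read across 64-0.06 μg/mL with 5×10^5 CFU/mL inoculum. Method followed NCCLS M7-A2 broth dilution using Mueller-Hinton II; Gram-positive strains covered recent methicillin-, penicillin- and/or vancomycin-resistant clinical isolates.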
# Staphylococcus sp. = details: broth dilution, 18 hours at 35° C.
# Summary of the method: as §1
# Streptococcus sp. = details: broth dilution, 18 hours at 35° C.
# Summary of the method: as §1
# Escherichia coli = details: 18 hours at 35° C.
# Summary of the method: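 Test organisms, which included recent clinical isolates resistant to methicillin, penicillin and/or vancomycin, were inoculated at 5×10^5 CFU/mL into Muller-Hinton II […] containing antibiotic at 64-0.06 μg/mL. Minimum inhibitory concentrations were then read as the lowest level inhibiting growth.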
smiles,measurement,setting,value
"CC(C)C(=O)OCC1OC(OC2C(CO)OC(Oc3ccc(CC4NC(=O)C(Cc5ccccc5)NC(=O)CNC(=O)C(CO)NC(=O)C(C(O)C5CNC(=N)N5C5OC(CO)C(O)C(O)C5O)NC(=O)C(C(O)C5CNC(=N)N5)NC4=O)cc3)C(O)C2O)C(O)C(O)C1O (centres unmarked) [Example 283a, Cyclo[glycylphenylalanyl-O-[4-O-[6-O-(2-methylpropanoyl)-hexopyranosyl]hexopyranosyl]tyrosyl-3-(2-iminoimidazolidin-4-yl)seryl-3-(3-hexopyranosyl-2-iminoimidazolidin-4-yl)seryliseryl]]",MIC Enterococcus avium (GC 4558),Enterococcus sp.; Enterococcus avium (GC 4558),128 µg/mL
same,MIC Enterococcus faecalis (ATCC 29212),Enterococcus sp.; Enterococcus faecalis (ATCC 29212),>128 µg/mL
same,MIC Enterococcus faecalis (GC 4553),Enterococcus sp.; Enterococcus faecalis (GC 4553),>128 µg/mL
same,MIC Enterococcus faecalis (GC 4554),Enterococcus sp.; Enterococcus faecalis (GC 4554),>128 µg/mL
same,MIC Enterococcus faecalis (GC 6189),Enterococcus sp.; Enterococcus faecalis (GC 6189),>128 µg/mL
same,MIC Enterococcus faecium (GC 2243),Enterococcus sp.; Enterococcus faecium (GC 2243),>128 µg/mL
same,MIC Enterococcus faecium (GC 4556),Enterococcus sp.; Enterococcus faecium (GC 4556),>128 µg/mL
same,MIC Enterococcus faecium (GC 4557),Enterococcus sp.; Enterococcus faecium (GC 4557),64 µg/mL
same,MIC Enterococcus faecalis (ATCC 29212),Enterococcus sp.; strain ATCC 29212,>128 µg/mL
same,MIC Enterococcus faecalis (GC 2242),Enterococcus sp.; strain GC 2242,128 µg/mL
same,MIC Enterococcus faecium (GC 2243),Enterococcus sp.; strain GC 2243,>128 µg/mL
same,MIC Enterococcus faecalis (GC 2691),Enterococcus sp.; strain GC 2691,>128 µg/mL
same,MIC Enterococcus faecalis (GC 3059),Enterococcus sp.; strain GC 3059,>128 µg/mL
same,MIC Enterococcus faecalis (GC 4552),Enterococcus sp.; strain GC 4552,>128 µg/mL
same,MIC Enterococcus faecalis (GC 4553),Enterococcus sp.; strain GC 4553,>128 µg/mL
same,MIC Enterococcus faecalis (GC 4554),Enterococcus sp.; strain GC 4554,>128 µg/mL
same,MIC Enterococcus faecium (GC 4556),Enterococcus sp.; strain GC 4556,>128 µg/mL
same,MIC Enterococcus faecium (GC 4557),Enterococcus sp.; strain GC 4557,64 µg/mL
same,MIC Enterococcus avium (GC 4558),Enterococcus sp.; strain GC 4558,128 µg/mL
same,MIC Enterococcus faecalis (GC 6189),Enterococcus sp.; strain GC 6189,>128 µg/mL
same,MIC Coagulase Negative Staphylococcus (GC 4547),Staphylococcus sp.,64 µg/mL
same,MIC Coagulase Negative Staphylococcus (GC 4548),Staphylococcus sp.,64 µg/mL
same,MIC Coagulase Negative Staphylococcus (GC 4549),Staphylococcus sp.,32 µg/mL
same,MIC Coagulase Negative Staphylococcus (GC 4551),Staphylococcus sp.,64 µg/mL
same,MIC Staphylococcus aureus (ATCC 29213),Staphylococcus sp.,64 µg/mL
same,MIC Staphylococcus aureus (GC 1131),Staphylococcus sp.,64 µg/mL
same,MIC Staphylococcus aureus (GC 3051),Staphylococcus sp.,64 µg/mL
same,MIC Staphylococcus aureus (GC 3053),Staphylococcus sp.,128 µg/mL
same,MIC Staphylococcus aureus (GC 4541),Staphylococcus sp.,64 µg/mL
same,MIC Staphylococcus aureus (GC 4542),Staphylococcus sp.,64 µg/mL
same,MIC Staphylococcus aureus (GC 4544),Staphylococcus sp.,64 µg/mL
same,MIC Staphylococcus aureus (GC 4545),Staphylococcus sp.,64 µg/mL
same,MIC Staphylococcus aureus-SMITH (GC 4543),Staphylococcus sp.,64 µg/mL
same,MIC Staphylococcus haemolyticus (GC 4546),Staphylococcus sp.,64 µg/mL
same,MIC Staphylococcus aureus (ATCC 29213),Staphylococcus sp.; strain ATCC 29213,64 µg/mL
same,MIC Staphylococcus aureus (GC 1131),Staphylococcus sp.; strain GC 1131,64 µg/mL
same,MIC Staphylococcus aureus (GC 3051),Staphylococcus sp.; strain GC 3051,64 µg/mL
same,MIC Staphylococcus aureus (GC 3053),Staphylococcus sp.; strain GC 3053,128 µg/mL
same,MIC Staphylococcus aureus (GC 4541),Staphylococcus sp.; strain GC 4541,64 µg/mL
same,MIC Staphylococcus aureus (GC 4542),Staphylococcus sp.; strain GC 4542,64 µg/mL
same,MIC Staphylococcus aureus (GC 4544),Staphylococcus sp.; strain GC 4544,64 µg/mL
same,MIC Staphylococcus aureus (GC 4545),Staphylococcus sp.; strain GC 4545,64 µg/mL
same,MIC Staphylococcus haemolyticus (GC 4546),Staphylococcus sp.; strain GC 4546,64 µg/mL
same,MIC Coagulase Negative Staphylococcus (GC 4547),Staphylococcus sp.; strain GC 4547,64 µg/mL
same,MIC Coagulase Negative Staphylococcus (GC 4548),Staphylococcus sp.; strain GC 4548,64 µg/mL
same,MIC Coagulase Negative Staphylococcus (GC 4549),Staphylococcus sp.; strain GC 4549,32 µg/mL
same,MIC Coagulase Negative Staphylococcus (GC 4551),Staphylococcus sp.; strain GC 4551,64 µg/mL
same,MIC Staphylococcus aureus-SMITH (GC 4543),Staphylococcus sp.; strain SMITH GC 4543,64 µg/mL
same,MIC Streptococcus pneumoniae (ATCC 6301),Streptococcus sp.; strain ATCC 6301,16 µg/mL
same,MIC Streptococcus pneumoniae (GC 1894),Streptococcus sp.; strain GC 1894,16 µg/mL
same,MIC Streptococcus pyogenes (GC 4563),Streptococcus sp.; strain GC 4563,64 µg/mL
same,MIC Streptococcus agalactiae (GC 4564),Streptococcus sp.; strain GC 4564,64 µg/mL
same,MIC Streptococcus pneumoniae (GC 4565),Streptococcus sp.; strain GC 4565,16 µg/mL
same,MIC Escherichia coli (ATCC 25922),Escherichia coli; Escherichia coli (ATCC 25922),128 µg/mL
same,MIC Escherichia coli (GC 4559),Escherichia coli; Escherichia coli (GC 4559),>128 µg/mL
same,MIC Escherichia coli (GC 4560),Escherichia coli; Escherichia coli (GC 4560),32 µg/mL
